Data: US4291175A, “1-Hydroxymethyl-11-deoxy-15-hydroxy-prosten-1-ol-derivatives” (American Cyanamid Company, priority 1980, dated 1981)

Columns and labels:
Type in all cases: in vivo
Conditions in all cases: Konzett data
5-HT = assay: Konzett test, 5-HT (bronchodilator activity)
Hist = assay: Konzett test, Hist (bronchodilator activity)
Ach = assay: Konzett test, Ach (bronchodilator activity)

Structure (SMILES): CCCCCC(C)(O)/C=C/C1C(O)CC(=O)C1C/C=C\CCCCO (racemic) [dl-1,11,15-trihydroxymethyl-9-oxo-15-methyl-5-cis-13-trans prostadiene]
- 5-HT (ED50 g/kg) (5-HT): 0.0083 g/kg
- Hist (ED50 g/kg) (Hist): 0.00075 g/kg
- Ach (ED50 g/kg) (Ach): 0.0043 g/kg
